Measured values published in patent publication US20050002904A1, “Uses of vascular endothelial growth factor and type I collagen inducible protein (VCIP)” (priority 2003, published 2005).
Marks after values point to notes of the source that are not given here. Where no end group is shown, it is not given here.

Columns and labels:
endothelial cells [1] = assay: Adhesion blocking assay on GST-VCIP-RGD-coated dishes; type: cell-based, human
PAP2b = biological target: T1, PAP2b (Homo sapiens, UniProt O14495); conditions: membrane fraction of 293T cells over-expressing PAP2b; cited from earlier work
T1 construct: expressed in transfected cells; host or cells: 293T cells (membrane fraction)
T1 sequence (O14495 1-311): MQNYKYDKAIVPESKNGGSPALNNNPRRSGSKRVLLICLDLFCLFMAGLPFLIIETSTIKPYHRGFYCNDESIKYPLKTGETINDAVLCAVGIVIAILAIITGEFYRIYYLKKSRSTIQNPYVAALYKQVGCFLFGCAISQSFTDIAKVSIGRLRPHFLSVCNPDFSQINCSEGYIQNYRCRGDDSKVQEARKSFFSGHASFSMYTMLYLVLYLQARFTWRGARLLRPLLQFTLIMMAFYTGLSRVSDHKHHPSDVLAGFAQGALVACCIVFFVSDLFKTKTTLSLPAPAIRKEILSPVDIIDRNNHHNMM

VCIP = VCIP mRNA induction by growth factors and cytokines in monolayer cells; type: cell-based, human
Protocol: FIGS. 1A-M show expression analysis and predicted amino acid sequence of VEGF and type I collagen inducible protein (VCIP). FIG. 1A: HUVECs were embedded into three-dimensional type I collagen gel in the presence of 20% adult human serum, 1× ITS and stimulated with VEGF^165 (100 ng/ml). Total RNA was prepared at the indicated time points. Northern blots were hybridized with a fragment of the VCIP (clone-33A) cDNA probe. The transcript size (3.4 kb) is indicated on the right. The numbers at the bottom of the gel represent the fold increase in VCIP mRNA levels, as compared with untreated cells. […] Total RNA was isolated at indicated time points and subjected to VCIP northern blot analysis. […] FIG. 1E: Poly(A)^+ RNA prepared from various human tissues was subjected to VCIP northern blot analysis by hybridization with the clone-33A cDNA probe. FIG. 1F: The blot shown in FIG. 1E was re-hybridized with a GAPDH probe, showing that equal amounts of RNA were loaded across the lanes. FIG. 1G: Detection of VCIP mRNA by RT-PCR (20 cycles): monolayer endothelial cells were treated for 30 min with: (1) untreated, (2) bFGF (20 ng/ml), (3) VEGF^165 (100 ng/ml), (4) PMA (20 ng/ml), (5) bFGF (20 ng/ml)+VEGF (100 ng/ml), (6) bFGF (20 ng/ml)+PMA (20 ng/ml), (7) VEGF (100 ng/ml)+PMA (20 ng/ml) and (8) bFGF (20 ng/ml)+VEGF (100 ng/ml)+PMA (20 ng/ml). FIGS. 1H-J: RT-PCR analysis of uPAR mRNA (FIG. 1H), β-actin mRNA (FIG. 11) and GAPDH mRNA levels (FIG. 1J) were carried out under the same conditions as described in FIG. 1G. All experiments were repeated at least three times, with similar results. FIG. 1K: Inserts from six recombinant_phage clones are shown, and the relative position of clone 33A is indicated. FIG. 1L: The complete predicted amino acid sequence of VCIP. The putative transmembrane segments are underlined. The N-linked glycosylation site is indicated by an asterisk. The lipid phosphatase catalytic domain is indicated by bold letters and underlined, and the RGD motif is boxed. FIG. 1M: The amino acid sequence of human VCIP (top) is aligned with other proteins containing lipid phosphatase-like catalytic motifs.
FIGS. 3A-F show VCIP induction by growth factors and cytokines. Indicated monolayer cells were stimulated with various growth factors and cytokines for 6 h in media M199 containing 10% serum+1× ITS. The concentrations of cytokines used were optimized according to their ability to induce Erk2 phosphorylation in western blot analysis: VEGF^165 (100 ng/ml), EGF (20 ng/ml), bFGF (30 ng/ml), TNF-α (15 ng/ml), PMA (10 ng/ml) and IL-1β (25 ng/ml). Total RNA (20 μg per lane) was subjected to northern blot analysis by hybridization with the indicated probes. The uPAR northern blot was included as a control for the cytokines used. Ethidium bromide-stained gels show equal amounts of RNA used (FIGS. 3C and F). Data shown are representative of those obtained in two or three separate experiments.
VCIP mRNA was most strongly expressed in human heart and placenta, tissues that are highly vascularized (FIG. 1E). Next, expression of VCIP in monolayer endothelial cells treated with bFGF, VEGF and PMA was examined (FIG. 1G). […] This pattern of regulation was identical to that of the human receptor for urokinase plasminogen activator (uPAR) expression (FIG. 1H). β-actin and GAPDH were included as controls and were not regulated under any of these conditions (FIGS. 1I and J).
To examine VCIP expression by other cell types, endothelial, smooth muscle and epithelial cells (A431) were stimulated in monolayer with various growth factors and cytokines for 6 h. Total RNA was then isolated and subjected to northern blot analysis for VCIP and uPAR (FIG. 3).

endothelial cells [2] = assay: Adhesion of endothelial cells to wells coated with GST fusion proteins; type: cell-based, human; conditions: pretreatment 20 μg/ml for 1 h and continued exposure
Protocol: FIG. 10A: Affinity purified GST-fusion proteins were resolved on SDS±PAGE and stained with Coomassie Blue. FIG. 10B: Integrins were immobilized onto 96-well plates, and various GST-fusion proteins (ligands) were allowed to bind. Bound ligands were incubated with anti-GST antibodies, appropriate substrate added and the color intensity measured. OD values <0.05 were considered to be background binding. Data are expressed as mean±SD (n=4). FIG. 10C: Dose-dependent binding of αvβ3 integrin with recombinant GST-VCIP-RGD. FIGS. 10D-F: Representative photomicrographs of adhesion and spreading of endothelial cells replated onto dishes coated with either fibronectin (FIG. 9D), vitronectin (FIG. 9E) or GST-VCIP-RGD (FIG. 9F). […] Attached cells were stained, washed and absorbances of eluted dyes measured. […] Attached cells were stained, washed and absorbances of eluted dyes determined. […] Data are expressed as mean±S.D.; diamond, P<0.01; asterisk, P<0.001. […]
For adhesion blocking assays, endothelial cells were detached, washed with PBS and resuspended in M199 media containing 1 mM CaCl2 and 1 mM MgCl2 in the absence of serum or growth factors. […] Absorbances were measured at 540 nm.
Next, the capacity of VCIP-RGD to bind endothelial cell integrins was evaluated by determining the effect of GST-VCIP fusion proteins on cell adhesion and spreading.

[3] = test system: HEK cells stably expressing pLNCX2-VCIP-RGD (WT); assay: Cell aggregation of HEK cells stably expressing VCIP constructs (Table 1); type: cell-based; conditions: for size, speed of formation and number of cell aggregates: continuous presence, antibody 25-50 μl/ml, peptides 10-50 nM; for % cell aggregates: WT cells, 48 h, mean ± SD
Protocol: WT cells were also incubated with several peptides modeled after the VCIP-RGD region. When WT cells were cultured in the continuous presence of an anti-VCIP-RGD antibody (25-50 μl/ml) and NYRCRGDDSK (SEQ ID NO:20) (10-50 nM), the size, the speed of formation and the number of such cell aggregates were reduced (Table 1).

[4] = A431 epidermoid carcinoma cells, 6 h, northern blot
[5] = monolayer endothelial cells, RT-PCR, 30 min

O=C(O)CN(CCN(CC(=O)O)CC(=O)O)CC(=O)O [EDTA, reference compound]
detachment of endothelial cells adhered to VCIP (endothelial cells [1]; 2.5 mM (pH 7.4) for 5 min): caused the cells to detach from tissue culture dishes

CCN1C(=O)C=CC1=O [N-ethylmaleimide]
effect on phosphatase activity against phosphatidic acid (PAP2b): insensitive

CCCCCCCCCCCCCC(=O)O[C@@H]1[C@@H](C)[C@@]2(O)[C@@H](C=C(CO)C[C@]3(O)C(=O)C(C)=C[C@@H]23)[C@@H]2C(C)(C)[C@]12OC(C)=O [PMA]
induction of VCIP expression (VCIP; [4]): strongly induced | induction of VCIP expression (VCIP; AoSMC, 6 h, northern blot): did not | induction of VCIP expression (VCIP; CASMCs, 6 h, northern blot): Neither PMA nor VEGF^165 induced expression of VCIP | induction of VCIP expression (VCIP; [5]): equally able to induce expression of VCIP

C[C@@H]1C[C@@H]([C@H](O)CC2CC(=O)NC(=O)C2)C(=O)[C@@H](C)C1 [cycloheximide, reference compound]
total number of attached cells (endothelial cells [2]): did not decrease the total number of attached cells

CC(C)NCC(O)COc1cccc2ccccc12 (centres unmarked) [propranolol]
effect on phosphatase activity against phosphatidic acid (PAP2b): blocked

CCCCCCCCCCCCC/C=C/[C@@H](O)[C@@H](N)CO [sphingosine]
effect on phosphatase activity against phosphatidic acid (PAP2b): blocked

NYRCRADDSK (CHAIN a peptide containing a mutated RGD sequence)
size, speed of formation and number of cell aggregates [3]: no reduction in cell aggregation | % cell aggregates ([3]; substance 10 nM): 92 ± 5.7% | % cell aggregates ([3]; substance 30 nM): 89 ± 7.5% | % cell aggregates ([3]; substance 50 nM): 90 ± 7.2^a %

NYRCRGDDSK (CHAIN a peptide containing RGD sequence)
size, speed of formation and number of cell aggregates [3]: reduced | % cell aggregates ([3]; substance 10 nM): 67 ± 15.7% | % cell aggregates ([3]; substance 30 nM): 46 ± 13.3% | % cell aggregates ([3]; substance 50 nM): 28 ± 10.5^a %

NYRCRGDDSKVQE (also: acetylated) [acetylated NYRCRGDDSKVQE (VCIP-RGD)]
detachment of attached cells from VCIP-RGD-coated wells (endothelial cells [1]; 5 nM): eventually completely detached from the wells | time until attached cells rounded up (endothelial cells [1]; 5 nM, cells plated on VCIP-RGD-coated wells): ≤ 5 min

NYRCRGEDSK (CHAIN a peptide containing a mutated RGD sequence)
size, speed of formation and number of cell aggregates [3]: no reduction in cell aggregation

TNF-α
induction of VCIP expression (VCIP; [4]): had no effect

bFGF: Basic Fibroblast growth factor
induction of VCIP expression (VCIP; [4]): had no effect | induction of VCIP expression (VCIP; [5]): equally able to induce expression of VCIP
